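Cells were grown in 96-well plates and exposed to each compound for 48 hours at five concentrations; endpoints were interpolated linearly between bracketing concentrations, or set to the highest concentration if not reached. Here, GI50 denotes the concentration required for 50% inhibition of growth.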 The source made the active and inactive calls. Rule as the data show it: active = GI50 up to about 1.1 µM and inactive = higher.
Experiments:
Experiment in all cases: NCI tumour cell line growth inhibition, 48 h
[1] = test system: 786-0
[2] = test system: A549
[3] = test system: CCRF-CEM
[4] = test system: COLO 205
[5] = test system: HL-60
[6] = test system: HOP-62
[7] = test system: LOX IMVI
[8] = test system: MDA-MB-231
[9] = test system: Malme-3M
[10] = test system: NCI-H226
[11] = test system: OVCAR-4
[12] = test system: OVCAR-5
[13] = test system: SF-295
[14] = test system: SF-539
[15] = test system: SK-MEL-28
[16] = test system: SK-MEL-5
[17] = test system: SN12C
[18] = test system: SNB-19
[19] = test system: UACC-257
[20] = test system: UACC-62

With `N=C(NCc1ccccc1)N/N=C\c1ccnc2ccccc12` the GI50 [1] was 13.7 µM (inactive), the GI50 [2] was 15 µM (inactive) and the GI50 [3] was 1.87 µM (inactive). For the same molecule, the GI50 [4] was 1.71 µM (inactive), the GI50 [5] was 14.3 µM (inactive) and the GI50 [6] was 16 µM (inactive). For the same molecule, the GI50 [7] was 11.5 µM (inactive), the GI50 [8] was 13.9 µM (inactive) and the GI50 [9] was 10.2 µM (inactive). For the same molecule, the GI50 [10] was 17.1 µM (inactive), the GI50 [11] was 11.7 µM (inactive) and the GI50 [12] was 13.4 µM (inactive). The GI50 [13] was 15.3 µM (inactive), the GI50 [14] was 15.7 µM (inactive) and the GI50 [15] was 12 µM (inactive). For the same molecule, the GI50 [16] was 6.52 µM (inactive), the GI50 [17] was 15.1 µM (inactive) and the GI50 [18] was 17.9 µM (inactive). For the same molecule, the GI50 [19] was 2.35 µM (inactive) and the GI50 [20] was 15.1 µM (inactive).

For `CC1(C)C2CCC(=O)C1C(OCc1ccccc1)C2` (stereo not given), the GI50 [1] was > 100 µM (inactive), the GI50 [2] was 21.9 µM (inactive) and the GI50 [3] was > 100 µM (inactive). The GI50 [4] was > 100 µM (inactive), the GI50 [5] was 67.3 µM (inactive) and the GI50 [6] was > 100 µM (inactive). The GI50 [7] was > 100 µM (inactive), the GI50 [8] was > 100 µM (inactive) and the GI50 [9] was > 100 µM (inactive). For the same molecule, the GI50 [10] was > 100 µM (inactive), the GI50 [11] was > 100 µM (inactive) and the GI50 [12] was > 100 µM (inactive). The GI50 [13] was > 100 µM (inactive), the GI50 [14] was > 100 µM (inactive) and the GI50 [15] was > 100 µM (inactive). The GI50 [16] was 17.4 µM (inactive), the GI50 [17] was > 100 µM (inactive) and the GI50 [18] was > 100 µM (inactive). The GI50 [19] was 85.7 µM (inactive) and the GI50 [20] was > 100 µM (inactive).

With `O=C(/C=C/c1ccc2ccccc2c1)NCc1ccc(C(=O)NCc2ccccc2)cc1` the GI50 [1] was 67.9 µM (inactive), the GI50 [2] was 65.5 µM (inactive) and the GI50 [3] was > 93.3 µM (inactive). The GI50 [4] was > 100 µM (inactive), the GI50 [5] was 14.7 µM (inactive) and the GI50 [6] was 14.2 µM (inactive). The GI50 [7] was > 100 µM (inactive), the GI50 [8] was > 100 µM (inactive) and the GI50 [9] was > 35.8 µM (inactive). The GI50 [10] was 26.3 µM (inactive), the GI50 [11] was 8.53 µM (inactive) and the GI50 [12] was > 100 µM (inactive). The GI50 [13] was 34.4 µM (inactive), the GI50 [14] was 27.5 µM (inactive) and the GI50 [15] was > 100 µM (inactive). The GI50 [16] was 98.9 µM (inactive), the GI50 [17] was > 100 µM (inactive) and the GI50 [18] was 35.9 µM (inactive). For the same molecule, the GI50 [19] was > 100 µM (inactive) and the GI50 [20] was 97.9 µM (inactive).

With `NC(=S)NS(=O)(=O)c1ccc(F)cc1` the GI50 [1] was > 100 µM (inactive), the GI50 [2] was > 100 µM (inactive) and the GI50 [3] was > 100 µM (inactive). The GI50 [4] was > 100 µM (inactive), the GI50 [5] was > 100 µM (inactive) and the GI50 [6] was > 100 µM (inactive). The GI50 [7] was > 100 µM (inactive), the GI50 [8] was > 100 µM (inactive) and the GI50 [9] was > 100 µM (inactive). For the same molecule, the GI50 [10] was > 100 µM (inactive), the GI50 [11] was > 100 µM (inactive) and the GI50 [12] was > 100 µM (inactive). For the same molecule, the GI50 [13] was > 100 µM (inactive), the GI50 [14] was > 100 µM (inactive) and the GI50 [15] was > 100 µM (inactive). The GI50 [16] was > 100 µM (inactive), the GI50 [17] was > 100 µM (inactive) and the GI50 [18] was > 100 µM (inactive). The GI50 [19] was > 100 µM (inactive) and the GI50 [20] was > 100 µM (inactive).

With `COc1cc(/C=C2/C(=O)N(C(=O)c3ccccc3O)N=C2C)cc(OC)c1OC` the GI50 [1] was 2.25 µM (inactive), the GI50 [2] was 0.439 µM (active) and the GI50 [3] was 1.77 µM (inactive). The GI50 [4] was 34.4 µM (inactive), the GI50 [5] was 2.9 µM (inactive) and the GI50 [6] was 1.29 µM (inactive). The GI50 [7] was 2.09 µM (inactive), the GI50 [8] was 23.5 µM (inactive) and the GI50 [9] was 8.17 µM (inactive). For the same molecule, the GI50 [10] was 6.21 µM (inactive), the GI50 [11] was 2.73 µM (inactive) and the GI50 [12] was 11.7 µM (inactive). The GI50 [13] was 1.16 µM (inactive), the GI50 [14] was 0.839 µM (active) and the GI50 [15] was 53.7 µM (inactive). For the same molecule, the GI50 [16] was 2.88 µM (inactive), the GI50 [17] was 3.1 µM (inactive) and the GI50 [18] was 1.44 µM (inactive). The GI50 [19] was 4.9 µM (inactive) and the GI50 [20] was 0.405 µM (active).

For `Oc1ccc2ccccc2c1-c1c(Nc2ccccc2)ccc2ccccc12`, the GI50 [1] was 17.8 µM (inactive), the GI50 [2] was 18.5 µM (inactive) and the GI50 [3] was 16.2 µM (inactive). For the same molecule, the GI50 [4] was 19.9 µM (inactive), the GI50 [5] was 19.5 µM (inactive) and the GI50 [6] was 16.1 µM (inactive). For the same molecule, the GI50 [7] was 19.4 µM (inactive), the GI50 [8] was 0.498 µM (active) and the GI50 [9] was 8.53 µM (inactive). The GI50 [10] was 21 µM (inactive), the GI50 [11] was 12.3 µM (inactive) and the GI50 [12] was 16.3 µM (inactive). For the same molecule, the GI50 [13] was 16.8 µM (inactive), the GI50 [14] was 14 µM (inactive) and the GI50 [15] was 13.9 µM (inactive). The GI50 [16] was 13.6 µM (inactive), the GI50 [17] was 27 µM (inactive) and the GI50 [18] was 18.5 µM (inactive). For the same molecule, the GI50 [19] was 18.9 µM (inactive) and the GI50 [20] was 14.9 µM (inactive).

In the case of `O=C1CC(c2ccc(Cl)cc2)C2(C(=O)NC(=S)NC2=O)C(c2ccc(Cl)cc2)C1` (stereo not given), the GI50 [1] is reported as 36.5 µM (inactive), the GI50 [2] is reported as 26.9 µM (inactive) and the GI50 [3] is reported as 24.2 µM (inactive). For the same molecule, the GI50 [4] was 16.8 µM (inactive), the GI50 [5] was 20.8 µM (inactive) and the GI50 [6] was 26.8 µM (inactive). The GI50 [7] was 28.3 µM (inactive), the GI50 [8] was 20.2 µM (inactive) and the GI50 [9] was 21.4 µM (inactive). The GI50 [10] was 21.7 µM (inactive), the GI50 [11] was 17.5 µM (inactive) and the GI50 [12] was 19.6 µM (inactive). For the same molecule, the GI50 [13] was 17.6 µM (inactive), the GI50 [14] was 20 µM (inactive) and the GI50 [15] was 16.1 µM (inactive). The GI50 [16] was 17 µM (inactive), the GI50 [17] was 18.2 µM (inactive) and the GI50 [18] was 18.4 µM (inactive). For the same molecule, the GI50 [19] was 18.5 µM (inactive) and the GI50 [20] was 16.1 µM (inactive).

In the case of `COC1(CC[C@@H](C)COC2OC(CO)C(O)C(O)C2O)OC2C[C@H]3[C@@H]4CC[C@H]5C[C@@H](OC6OC(CO)C(OC7OC(CO)C(O)C(O)C7O)C(O)C6OC6OC(C)C(O)C(O)C6O)[C@H](O)C[C@]5(C)[C@H]4CC[C@]3(C)C2[C@@H]1C` (stereo not given in full), the GI50 [1] is reported as 2.02 µM (inactive), the GI50 [2] is reported as 1.92 µM (inactive) and the GI50 [3] is reported as 1.88 µM (inactive). For the same molecule, the GI50 [4] was 2.57 µM (inactive), the GI50 [5] was 2.32 µM (inactive) and the GI50 [6] was 1.89 µM (inactive). For the same molecule, the GI50 [7] was 1.79 µM (inactive), the GI50 [8] was 1.95 µM (inactive) and the GI50 [9] was 1.85 µM (inactive). The GI50 [10] was 2.22 µM (inactive), the GI50 [11] was 1.97 µM (inactive) and the GI50 [12] was 2.17 µM (inactive). For the same molecule, the GI50 [13] was 1.8 µM (inactive), the GI50 [14] was 1.83 µM (inactive) and the GI50 [15] was 1.88 µM (inactive). The GI50 [16] was 1.79 µM (inactive), the GI50 [17] was 1.86 µM (inactive) and the GI50 [18] was 1.87 µM (inactive). For the same molecule, the GI50 [19] was 1.97 µM (inactive) and the GI50 [20] was 1.85 µM (inactive).

In the case of `Cc1oc2c(c1C(=O)c1ccccc1)C(=O)c1ccccc1C2=O`, the GI50 [1] is reported as 4.38 µM (inactive), the GI50 [2] is reported as 14.7 µM (inactive) and the GI50 [3] is reported as 2.16 µM (inactive). The GI50 [4] was 13.9 µM (inactive), the GI50 [5] was 2.28 µM (inactive) and the GI50 [6] was 14.2 µM (inactive). The GI50 [7] was 2.22 µM (inactive), the GI50 [8] was 2.24 µM (inactive) and the GI50 [9] was 1.81 µM (inactive). For the same molecule, the GI50 [10] was 13.9 µM (inactive), the GI50 [11] was 3.21 µM (inactive) and the GI50 [12] was 15.2 µM (inactive). The GI50 [13] was 9.27 µM (inactive), the GI50 [14] was 10.6 µM (inactive) and the GI50 [15] was 11.1 µM (inactive). For the same molecule, the GI50 [16] was 1.24 µM (inactive), the GI50 [17] was 11.7 µM (inactive) and the GI50 [18] was 9.91 µM (inactive). For the same molecule, the GI50 [19] was 3.61 µM (inactive) and the GI50 [20] was 2.98 µM (inactive).

`COc1cc(/C=C/c2ccnc3ccccc23)cc(OC)c1OC` was tested, and the GI50 [1] was 8.97 µM (inactive), the GI50 [2] was 4.52 µM (inactive) and the GI50 [3] was 2.09 µM (inactive). For the same molecule, the GI50 [4] was 1.88 µM (inactive), the GI50 [5] was 0.416 µM (active) and the GI50 [6] was 7.16 µM (inactive). For the same molecule, the GI50 [7] was 4.63 µM (inactive), the GI50 [8] was 2.21 µM (inactive) and the GI50 [9] was 2.98 µM (inactive). The GI50 [10] was 5.04 µM (inactive), the GI50 [11] was 1.81 µM (inactive) and the GI50 [12] was 7.8 µM (inactive). The GI50 [13] was 8.47 µM (inactive), the GI50 [14] was 3.78 µM (inactive) and the GI50 [15] was 3.08 µM (inactive). The GI50 [16] was 2.45 µM (inactive), the GI50 [17] was 3.56 µM (inactive) and the GI50 [18] was 10.4 µM (inactive). The GI50 [19] was 5.27 µM (inactive) and the GI50 [20] was 3.17 µM (inactive).

From ChEMBL document CHEMBL1201862, “PubChem BioAssay data set” (2004)
